# Assay results reported in patent US12049469B2, “Compound and structural body for detecting hydrogen sulfide” (CANON KABUSHIKI KAISHA, priority 2020, dated 2024).
# Assays:
# [1] = Behaviour of detection material in aqueous solution (precipitation, water solubility); format: physicochemical
# From the text: To detect hydrogen sulfide and metabolites in an aqueous specimen, such as a biological sample, the present inventors have examined whether the compound disclosed as a detection material in Non Patent Literature 1 can detect hydrogen sulfide in neutral phosphate-buffered saline.
# [2] = Fluorescence intensity change of compound solution on addition of sodium sulfide (hydrogen sulfide donor) in phosphate-buffered saline; details: for ΔF0 (0 mM sodium sulfide), amount of change in fluorescence intensity / ΔF (0.2 mM sodium sulfide), amount of change in fluorescence intensity F2−F1: compound 5 μM in 1× phosphate-buffered saline pH 7.4; for ΔF0 (0 mM sodium sulfide), amount of change in fluorescence intensity: 10 minutes; for ΔF (0.2 mM sodium sulfide), amount of change in fluorescence intensity F2−F1: 10 minutes after addition; for ΔF − ΔF0, difference in amount of change in fluorescence intensity in presence or absence of sodium sulfide: compound 5 μM in PBS pH 7.4, 0.2 mM vs 0 mM sodium sulfide; for Sensitivity: grade based on ΔF−ΔF0, A to C acceptable, D unacceptable
# Description: The compound 1 was added to 1× phosphate-buffered saline (3 mL, pH 7.4) at a concentration of 5 μM. The fluorescence intensity of the solution was immediately measured with a fluorescence spectrophotometer F-4500 (manufactured by Hitachi High-Technologies Corporation). Sodium sulfide serving as a hydrogen sulfide donor was then added to the solution at 0.2 mM. After standing for 10 minutes, the fluorescence intensity of the solution was measured. The fluorescence intensity before the addition of sodium sulfide was denoted as F1, and the fluorescence intensity 10 minutes after the addition of sodium sulfide was denoted as F2. The amount of change in fluorescence intensity (ΔF) due to the addition of sodium sulfide was calculated using the formula F2−F1. The concentration of sodium sulfide was changed to 0 mM, and the amount of change in fluorescence intensity (ΔF0) of the solution was calculated in the same manner. The difference in the amount of change in fluorescence intensity (ΔF−ΔF0) in the presence or absence of sodium sulfide was calculated.
# The evaluation is based on the following criteria in the exemplary embodiments of the present disclosure. A to C are acceptable levels, and D is an unacceptable level.
SMILES,Precipitate or aggregate formation in solution ([1]; neutral phosphate-buffered saline),"ΔF0 (0 mM sodium sulfide), amount of change in fluorescence intensity [2]","ΔF (0.2 mM sodium sulfide), amount of change in fluorescence intensity F2−F1 [2]","ΔF − ΔF0, difference in amount of change in fluorescence intensity in presence or absence of sodium sulfide [2]",Sensitivity [2],Water solubility (comparison) ([1]; compared with o-methyl fluorescein)
"COC(=O)/C(C#N)=C/c1ccccc1C(=O)Oc1ccc2c(c1)Oc1cc(OC)ccc1C21OC(=O)c2ccccc21 (stereo not drawn) [Compound 2, reference compound]",a precipitate or aggregate of the detection material is formed in the solution,−0.4,11.4,11.8,D (ΔF−ΔF0 is less than 15),
COCCOCCOCCOCCNC(=S)Nc1ccc2c(c1)C(=O)OC21c2ccc(O)cc2Oc2cc(OC(=O)c3ccccc3/C=C(\C#N)C(=O)OCCCNC(=O)c3ccc(/N=N/c4ccc(N(C)C)cc4)cc3)ccc21 (stereo not drawn) [Compound 5],,1.2,42.3,41.1,A (ΔF−ΔF0 is 40 or more),
CN(C)c1ccc(/N=N/c2ccc(C(=O)NCCCOC(=O)/C(C#N)=C/c3ccccc3C(=O)Oc3cc4c(cc3Cl)C3(OC(=O)c5ccccc53)c3cc(Cl)c(O)cc3O4)cc2)cc1 (stereo not drawn) [Compound 4],,4.9,10.3,5.4,D (ΔF−ΔF0 is less than 15),
CN(C)c1ccc(/N=N/c2ccc(C(=O)NCCCOC(=O)/C(C#N)=C/c3ccccc3C(=O)Oc3ccc4c(c3)Oc3cc(O)ccc3C43OC(=O)c4ccccc43)cc2)cc1 (stereo not drawn) [Compound 1],,1.1,42.8,41.7,A (ΔF−ΔF0 is 40 or more),
CN(C)c1ccc(/N=N/c2ccc(C(=O)NCCCOC(=O)/C(C#N)=C/c3ccccc3C(=O)Oc3cc4c(cc3F)C3(OC(=O)c5ccccc53)c3cc(F)c(O)cc3O4)cc2)cc1 (stereo not drawn) [Compound 6],,13.3,34.0,20.7,C (ΔF−ΔF0 is 15 or more and less than 25),
O=C1OC2(c3ccc(O)cc3Oc3cc(O)ccc32)c2ccccc21 [fluorescein],,,,,,higher water solubility than o-methyl fluorescein
CN(C)c1ccc(/N=N/c2ccc(C(=O)NCCCOC(=O)/C(C#N)=C/c3ccccc3C(=O)Oc3ccc4c(c3)Oc3cc(O)ccc3C43OC(=O)c4cc(NC(=S)NCC(=O)O)ccc43)cc2)cc1 (stereo not drawn) [Compound 3],,6.8,36.9,30.1,B (ΔF−ΔF0 is 25 or more and less than 40),
CN(C)c1ccc(/N=N/c2ccc(C(=O)NCCCOC(=O)/C(C#N)=C/c3ccccc3C(=O)Oc3ccc4c(c3)Oc3cc(O)ccc3C43OC(=O)c4c(Cl)c(Cl)c(Cl)c(Cl)c43)cc2)cc1 (stereo not drawn) [Compound 7],,2.2,8.8,6.5,D (ΔF−ΔF0 is less than 15),
